Laboratory results from patent US7691624B2, “Cancer cell detecting devices” (Academia Sinica, priority 2003, dated 2010).

Key:
CL1-0 cancer cells [1] = assay: Fluorescence of stained cells in eppendorf under LED, recorded by camera; format: cell-based, human; conditions: for Numbers of cells required to distinguish cancer cells and normal cells: Cancer cells (C) CL1-0
Description: (§1) Human lung CL1-0 cancer cells or MRC-5 normal cells were incubated with 0.5 μM of Compound 2 and acridine orange (AO). After incubation in standard culture medium for 1 hour, the non-fixed cells were removed by washing the culture three times with phosphate buffered saline (PBS). The fixed cells were collected in an eppendorf by trypsinization. The eppendorf was centrifuged and then illuminated by an light emitting diode (LED) emitting excitation light with a center wavelength at 470 nm. A conventional digital camera was used to record the fluorescence. Table 1 summarizes the numbers of cells required to distinguish cancer cells from normal cells based on fluorescence emission of Compound 2 and AO recorded by a camera under different experimental conditions. Specifically, Compound 2 and AO were incubated with four different cells in eppendorf, i.e., MRC-5 normal cells, primary fibroblast, CL1-0 cancer cells, and HeLa cancer cells.

MRC-5 normal cells = assay: as above; format: cell-based, human; conditions: for Numbers of cells required to distinguish cancer cells and normal cells: Normal cells (M) MRC-5
Description: as §1

DNA quadruplexes = assay: CD analysis of DNA quadruplexes and their complexes; format: binding; conditions: eight DNA quadruplexes
From the text: Eight DNA quadruplexes and their complexes with compound 2 were subjected to CD analysis. CD spectra were averaged 10 scans on a Jasco J-715 spectropolarimeter with a 2 nm bandwidth. The scan speed was 50 nm/min and the step resolution was 0.2 nm.

NIH3T3 normal cells [2] = assay: Cancer cell diagnosis in a tube; format: cell-based; conditions: NIH3T3 normal cells alone
From the text: (§2) NIH3T3 normal cells and a mixture of NIH3T3 normal cells and CL1-0 cancer cells with a cell ratio of 100:1 were respectively stained with Compound 2 and allowed to flow through a tube. The fluorescence emission upon excitation was monitored. […] In other words, this method can be used for early detection of cancer cells when cancer cells have a low concentration in a sample. For example, this method can be used to identify patients at risk of developing cancer, who should consider further examination by a physician.

[3] = tested on: mixture of NIH3T3 normal cells and CL1-0 cancer cells with a cell ratio of 100:1; assay: Cancer cell diagnosis in a tube; format: cell-based; conditions: NIH3T3:CL1-0 100:1
From the text: as §2

Hum24 = assay: Pre-stained gel electrophoresis selectivity and sensitivity assay; format: binding, human
Description: Pre-stained gels were used for selectivity assays. A 0.1 μM compound 2 solution was initially incubated with 10 μM of different DNA solutions for 10 minutes. Gel electrophoresis was then carried out in an electric field of 100 V/cm at 4° C. for 6 hours. All of the pre-stained gels were photographed under 254 nm UV light using a Bio-Rad imaging detector.
Gels pre-stained with compound 2 were used before running electrophoresis for AT, LD, GC, G10, LQ1, LQ2, LQ4, Tet12, Oxy12, Hum12, Apt, Oxy28, and Hum24. […] This third band is ascribed to be a linear tetramer of Tet12.
To study the sensitivity of DNA detection using electrophoresis described above, a solution containing 0.1 μM of compound 2 was incubated with solutions containing 2.5 to 0.005 μM of Hum24. The mixtures were then subjected to electrophoresis.

DNA = assay: Fluorescence analysis in the presence of a DNA; format: binding; conditions: λex≈430 nm; compound 2 with eleven DNAs, compound 4 with Hum24
Description: Compound 2 was mixed with eleven DNAs and subjected to fluorescence analysis at λex≈430 nm, using a Hitachi F4010 spectrofluorimeter with a 2 nm bandwidth in a 1-cm cell. Fluorescence analysis was also carried out for compound 4 in the presence of Hum24. […] Further, the fluorescence peaks for a complex of compound 2 and a DNA duplex and a complex of compound 2 and a DNA quadruplex were at ˜550 nm and ˜575 nm, respectively.

NIH3T3 normal cells [4] = assay: Stained cells spread onto cover slip, fluorescent cells counted; format: cell-based; conditions: 1.5 μM Compound 2, 5 minutes, LED
Description: (§3) Further, the role of the ratio of the cells stained by Compound 2/AO in cancer diagnosis was studied. Specifically, CL1-0 cancer cells, NIH3T3 normal cells, and their 1:10 mixture were respectively stained with 0.02 μM AO and 1.5 μM Compound 2 for 5 minutes in eppendorfs. Each sample was then taken from the eppendorf and spread onto a cover slip. Fluorescence emissions were recorded by a color camera upon an LED illumination. […] A statistical histogram of the ratio of the cell stained with Compound 2/AO to the ratio of the CL1-0 cells to the sum of NIH3T3 and CL1-0 cells was plotted. Each spot on the histogram represented an average of 5-10 measurements from a single sample.

CL1-0 cancer cells [5] = assay: as above; format: cell-based
Description: as §3

[6] = tested on: mixture of NIH3T3 normal cells and CL1-0 cancer cells with cell ratio of 10:1; assay: as above; format: cell-based; conditions: 1.5 μM Compound 2, 5 minutes, LED
Description: as §3

C[n+]1ccc(C=Cc2ccc3[nH]c4ccc(C=Cc5cc[n+](C)cc5)cc4c3c2)cc1.[I-].[I-] [Compound 2, 3,6-bis-(2-(1-methylpyridinium-4-yl)-vinyl)-9H-carbazole diiodide]
fluorescence emission in eppendorf (CL1-0 cancer cells [1]; 0.5 μM, 1 hour, LED 470 nm): fluorescence emission was clearly observed | Numbers of cells required to distinguish cancer cells and normal cells (CL1-0 cancer cells [1]; 0.1 μM/30 min): 2,000 (C) | Numbers of cells required to distinguish cancer cells and normal cells (CL1-0 cancer cells [1]; 0.5 μM/1 hr): 1,000 (C) | fluorescence emission in eppendorf (MRC-5 normal cells; 0.5 μM, 1 hour, LED 470 nm): no appreciable fluorescence emission was observed | Numbers of cells required to distinguish cancer cells and normal cells (MRC-5 normal cells; 0.1 μM/30 min): 10,000 (M) | Numbers of cells required to distinguish cancer cells and normal cells (MRC-5 normal cells; 0.5 μM/1 hr): 8,000 (M) | changes in the CD spectra of DNA quadruplexes before and after compound binding (DNA quadruplexes): No appreciable changes | fluorescence observed from stained cells flowing through a tube (NIH3T3 normal cells [2]): only weak fluorescence | fluorescence observed from stained cells flowing through a tube [3]: bright fluorescence | concentration of Hum24 quadruplex detected (Hum24; 0.1 μM compound solution, electrophoresis): 0.01 µM | fluorescence band in pre-stained gel (Hum24; 0.1 μM compound, 10 μM DNA, 254 nm UV light): exhibited fluorescence bands | increase of fluorescence intensity in the presence of a DNA (DNA): two orders of magnitude | number of stained cells showing fluorescence (NIH3T3 normal cells [4]): 4 | number of stained cells showing fluorescence (CL1-0 cancer cells [5]; 1.5 μM Compound 2, 5 minutes, cover slip, LED): ~22 | fluorescence brightness in cancer cells versus normal cells (CL1-0 cancer cells [5]; 1.5 μM, 5 minutes, CL1-0 versus NIH3T3, images): brighter fluorescence of Compound 2 in cancer cells than in normal cells | number of stained cells showing fluorescence [6]: 7
